These results are taken from PMC7075904, “Tethered primary hepatocyte spheroids on polystyrene multi-well plates for high-throughput drug safety testing” (Scientific Reports, 2020).

Data set [1] concerns rat hepatocytes tethered spheroids on modified PS plates. As to the kind of experiment: CellTiter-Glo 3D Cell Viability Assay on tethered spheroids with automated liquid handling. The format is cell-based. To be noted: 200 μM, 24 hours, rat hepatocyte tethered spheroids; DMSO-treated wells 12.32 × 10^6 RLU. The protocol:
Primary hepatocytes were harvested from male Wistar rats using a two-step in situ collagenase perfusion method according to protocols described previously[19],[31]. Freshly isolated rat hepatocytes were seeded onto the different substrates at a density of 1 × 10^5 cells/cm^2 in 96-well microplates and cultured in 100 μl of William’s E culture medium supplemented with 1 mg/mL bovine serum albumin (BSA), 10 ng/mL epidermal growth factor, […] insulin, 5 nM dexamethasone, 50 ng/mL linoleic acid, 100 units/mL penicillin and […]. Media was changed daily during the entire culture period. For collagen monolayer culture, neutralized 1.5 mg/ml Type I bovine collagen (Advanced BioMatrix, San Diego, CA, USA) was coated on the surface of the microplates.
Cell attachment and tethered spheroid formation was monitored using phase contrast microscopy for a period of seven days. In addition, CellTiter-Glo 3D Cell Viability Assay (Promega, Madison, Wisconsin, USA), which determines the number of viable cells present in a 3D cell culture/spheroid by quantifying the amount of ATP present, was used to test the variability in cell attachment across the plate and adaptation of the plate to an automated liquid handling system 5 days after cells seeding. […] After that, CellTiter-Glo 3D was added to each of the wells and the relative light units (RLU) were quantified.
For orientation: Cellular ATP, detected with luciferase, serves as a proxy for viable cell number.

For data set [2], the system named is primary human hepatocytes (PHHs) spheroids on the TS-PS system. As to the kind of experiment: Alamar Blue cell viability of PHHs tethered spheroids on PS plates (TS-PS). The data set is classed as cell-based. To be noted: Hepatocyte, PHHs in TS-PS, 24 hours after treatment, 3 donors. The method, then:
Cryopreserved PHHs were purchased commercially from Life Technologies (Carlsbad, CA, USA) and BD Biosciences (Franklin Lakes, NJ, USA). Freshly thawed cells were cultured as described[32] with daily culture media change. Hepatocytes from three different donors (three lots of commercial cells) were used for the experiments and all assays were performed after 72 hours of culture.
Cell viability of hepatocytes was measured 24 hours after treatment with drugs using Alamar Blue cell viability assay according to manufacturer’s instructions. Drugs used for the cell viability assays (Acetaminophen, Troglitazone, Chlorpromazine and Diclofenac) were purchased from Sigma. Stock solutions of drugs were prepared in DMSO and then diluted in media to obtain desired working concentrations. Controls were treated with solvent alone (in absence of test compounds) and considered as 100% viability value.
In general terms: Alamar Blue is a resazurin reagent that responds to reducing activity.

A further data set deals with hepatocytes. To be noted: cited from earlier work.
Data set [3] has as its system hepatocyte tethered spheroids. As to the kind of experiment: Inhibition of spheroid spreading/tethering (live cell imaging of spheroid diameter). The data set is classed as cell-based. As to conditions: 24 hour live cell imaging, tethered spheroids on modified PS plates. The protocol:
Hepatocytes were cultured as mentioned in section 2.1 and 2.2. Once spheroid formation was observed (2–3 days after cell seeding), cells were treated with DMSO or relevant hepatotoxicants (APAP/troglitazone) at different concentrations. 24 hour live cell imaging was performed starting 2 hours after drug addition using IN Cell Analyzer 2000 Imaging System (GE Healthcare Lifesciences, Buckinghamshire, U.K.). Images were acquired every 2 hours. Images acquired at 2 hours, 8 hours, 16 hours and 24 hours were used for further analysis. Individual spheroids were identified by image segmentation using Matlab Image Processing Toolbox and Statistical Toolbox (Mathworks) and the sizes of the spheroids were determined. Density plots were acquired in R (Version 3.1.2) to show the spheroid size distribution and percentage of spheroids within a certain diameter range at different drug concentrations was plotted in Excel.

Like-named read-outs stand apart in the source and are kept apart here.

Turning to `CN(C)CCCN1c2ccccc2Sc2ccc(Cl)cc21` [Chlorpromazine], the “CellTiter-Glo 3D signal (relative light units)” value in data set [1] is reported as 1.55 × 10^4 RLU. This compound showed an IC50 in data set [2] of 0.122 mM.

Consider `O=C(O)Cc1ccccc1Nc1c(Cl)cccc1Cl` [Diclofenac], for which the IC50 in data set [2] was 4 mM.

Turning to `Cc1c(C)c2c(c(C)c1O)CCC(C)(COc1ccc(CC3SC(=O)NC3=O)cc1)O2` (stereo not drawn) [Troglitazone], the IC50 with hepatocytes (read-out: IC50 (reported)) was 0.14 mM; in data set [2] it was 0.1 mM; in data set [3] (read-out: Concentration at which spheroids of diameter 90–120 μm decreased by 50% compared to untreated control) it was 0.01 mM.

Turning to `CC(=O)Nc1ccc(O)cc1` [Acetaminophen], the values for the IC50 (in the data set with hepatocytes (read-out: IC50 (conventional cell viability assays)); in data set [2]; in data set [3] (read-out: IC50 using changes in cellular dynamics (spheroids of diameter 90–120 μm decreased by 50% compared to untreated control))) were 8 to 40 mM, 50 mM and 5 mM, respectively.
